Experimental data as given in the NIST ThermoML archive (doi:10.1016/j.jct.2016.08.001).

Assays:
[1] = 100 kPa, Liquid; for speed of sound: Frequency=3 MHz, Sing-around technique in a fixed-path interferometer; for mass density: Vibrating tube method
[2] = refractive index (Na D-line) (dimensionless); conditions: 100 kPa, Liquid, Standard Abbe refractometry
[3] = refractive index (Na D-line) (dimensionless); xn = mol fraction of the nth substance listed; conditions: 100 kPa, Liquid, Standard Abbe refractometry, x1 = 1
[4] = xn = mol fraction of the nth substance listed; conditions: 100 kPa, Liquid, x1 = 1; for speed of sound: Frequency=3 MHz, Sing-around technique in a fixed-path interferometer; for mass density: Vibrating tube method

Nc1ccccc1 [aniline]
Conditions	mass density, [1] [kg/m3]	refractive index, [2]	speed of sound, [1] [m/s]
298.15 K	1017.1	1.5826	1636.8
303.15 K	1012.7	1.5793	1617.5
308.15 K	1008.4	1.576	1598.3
313.15 K	1004.1	1.5727	1579.1
318.15 K	999.7	1.5694	1560
323.15 K	995.4	1.5661	1540.9

O=Cc1ccccc1 [benzaldehyde]
Conditions	mass density, [1] [kg/m3]	refractive index, [2]	speed of sound, [1] [m/s]
298.15 K	1041	1.541	1457.3
303.15 K	1036.5	1.5383	1438.9
308.15 K	1032	1.5357	1420.6
313.15 K	1027.5	1.5332	1402.4
318.15 K	1023	1.5307	1384.4
323.15 K	1018.4	1.5282	1366.4

N#Cc1ccccc1 [benzonitrile]
Conditions	mass density, [1] [kg/m3]	refractive index, [2]	speed of sound, [1] [m/s]
298.15 K	1000.6	1.526	1415.6
303.15 K	995.9	1.5235	1398.1
308.15 K	991.4	1.5209	1380.8
313.15 K	986.9	1.5184	1363.6
318.15 K	982.5	1.5158	1346.5
323.15 K	977.9	1.5133	1329.5

CCOC(=O)OCC [diethyl carbonate]
Conditions	mass density, [1] [kg/m3]	refractive index, [2]	speed of sound, [1] [m/s]
298.15 K	969.1	1.3825	1177.5
303.15 K	963.5	1.3802	1156.9
308.15 K	957.8	1.3779	1136.6
313.15 K	952.1	1.3756	1116.5
318.15 K	946.4	1.3733	1096.5
323.15 K	940.7	1.371	1076.7

CCOC(=O)OCC [diethyl carbonate] + N#Cc1ccccc1
Conditions	mass density, [4] [kg/m3]	refractive index, [3]	speed of sound, [4] [m/s]
298.15 K	969.1	1.3825	1177.5
303.15 K	963.5	1.3802	1156.9
308.15 K	957.8	1.3779	1136.6
313.15 K	952.1	1.3756	1116.5
318.15 K	946.4	1.3733	1096.5
323.15 K	940.7	1.371	1076.7

CCOC(=O)OCC [diethyl carbonate] + Nc1ccccc1
Conditions	mass density, [4] [kg/m3]	refractive index, [3]	speed of sound, [4] [m/s]
298.15 K	969.1	1.3825	1177.5
303.15 K	963.5	1.3802	1156.9
308.15 K	957.8	1.3779	1136.6
313.15 K	952.1	1.3756	1116.5
318.15 K	946.4	1.3733	1096.5
323.15 K	940.7	1.371	1076.7

CCOC(=O)OCC [diethyl carbonate] + O=Cc1ccccc1
Conditions	mass density, [4] [kg/m3]	refractive index, [3]	speed of sound, [4] [m/s]
298.15 K	969.1	1.3825	1177.5
303.15 K	963.5	1.3802	1156.9
308.15 K	957.8	1.3779	1136.6
313.15 K	952.1	1.3756	1116.5
318.15 K	946.4	1.3733	1096.5
323.15 K	940.7	1.371	1076.7
